In the test the target is MAPKAPK2 (Homo sapiens, UniProt P49137). Kind of test: HTS ATP-utilizing enzyme assay, off-chip mobility-shift (Caliper HTS 250). It is filed as biochemical. The settings on record: test compound 10 μM, kinase listed = active (greater than six-sigma from the mean activity of inactive compounds). An excerpt: The following procedures describe the reagent and plate preparation for a HTS of an ATP-utilizing enzyme, such as a protein kinase, run in an off-chip mobility-shift assay format. The following provides an HTS protocol for running a protein kinase HTS screen on a Caliper HTS 250 microfluidics system. The following parameters are dependent on the protein kinase used and can be determined by one skilled in the art as part of a typical assay development process. For example, the peptide substrate used can be identified from the current literature, by screening a peptide library of potential protein kinase substrates, or by other applicable means accepted in the field.
The following table provides typical screen assay parameters appropriate for a Caliper HTS 250 microfluidics system.
The reagents and buffers listed in the following table are generally applicable for developing and running an HTS screen on a human protein kinase using the Caliper HTS 250 system.
The following reagents were prepared using the previously described buffers.
A 2× Master Buffer solution was prepared by combining 200 mL of 1 M HEPES, pH 7.5, 2 mL of 10% Triton X-100, 20 mL of 10% BSA, and 778 mL of H2O.
A TCB Buffer solution was prepared by combining 125 mL of 2× Master Buffer, 10 mL of 0.5 M EDTA, 6.25 mL of 4% coating reagent, 1.01 mL of 100% DMSO, and 107.74 mL H2O.
Assays to determine the kinase inhibitory activity of compounds of the present disclosure were performed using a Caliper HTS 250 microfluidics device, Greiner U-bottom assay plates, a Multidrop for transfer of reagents, and Biomek FX (AMNCBM03) software. Initially, 2.4 μL of a 1 mM solution of a test compound in 100% DMSO was added to a well of the Greiner U-bottom plate. A single Greiner U-bottom plate having 24×16 wells could include multiple test compounds. […] Using the Biomek FX, 10 μL of 0.5 M EDTA was added by the span-8 to wells, indicated as 100% Control and 2.4 μL of 100% DMSO was added by the span-8 to wells, indicated as 0% Control. […] The total reaction volume in each well was 25 μL, and the concentration of the test compound was 10 μM. The assay plate was incubated for 2.5 hrs at 20° C. to 22° C. […] The inhibition of the ATP-utilizing enzyme, such as a particular protein kinase, was determined by measuring the ratio of the peptide substrate to phosphorylated product for each well of the assay plate using the Caliper HTS 250 system.
The use of six-sigma statistical limits represents a conservative method for declaring potential hits among targets. The six-sigma activity, as well as the mean population activity, can be different for each target enzyme.

MAPKAPK2, sequence (P49137 whole entry): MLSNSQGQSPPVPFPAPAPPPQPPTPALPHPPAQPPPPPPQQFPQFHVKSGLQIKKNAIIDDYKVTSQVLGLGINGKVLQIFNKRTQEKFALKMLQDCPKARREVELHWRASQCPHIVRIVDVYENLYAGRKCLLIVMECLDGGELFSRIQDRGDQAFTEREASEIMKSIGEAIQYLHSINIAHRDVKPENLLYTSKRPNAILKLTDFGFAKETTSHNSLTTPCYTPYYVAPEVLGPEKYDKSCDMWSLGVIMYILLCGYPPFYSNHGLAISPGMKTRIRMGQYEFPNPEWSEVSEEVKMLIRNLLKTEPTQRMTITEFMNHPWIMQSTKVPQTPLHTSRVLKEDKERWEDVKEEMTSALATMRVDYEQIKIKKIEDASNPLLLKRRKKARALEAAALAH

In the case of `CN1CCC(N(C)c2ccc(Nc3ccnc4ccc(-c5cnc6ccccc6c5)cc34)cc2)C1` (stereo not drawn) [N1-(3,6′-biquinolin-4′-yl)-N4-methyl-N4-(1-methylpyrrolidin-3-yl)benzene-1,4-diamine], the Activity result is recorded as “MAPKAPK2”.
For `Cc1ccc(-c2ccc3nccc(Nc4ccc(N(C)C5CCN(C)C5)cc4)c3c2)nc1` (stereo not drawn) [N1-methyl-N4-(6-(5-methylpyridin-2-yl)quinolin-4-yl)-N1-(1-methylpyrrolidin-3-yl)benzene-1,4-diamine] the value was “MAPKAPK2”; for `CCN(CC)C1CCN(c2ccc(Nc3ccnc4ccc(-c5ccc6ccccc6c5)cc34)cc2)C1` (stereo not drawn) [N-(4-(3-(diethylamino)pyrrolidin-1-yl)phenyl)-6-(naphthalen-2-yl)quinolin-4-amine], “MAPKAPK2”.
For `CN(C)C1CCN(c2ccc(Nc3ccnc4ccc(-c5cccc6[nH]ccc56)cc34)cc2)C1` (stereo not drawn) [N-(4-(3-(dimethylamino)pyrrolidin-1-yl)phenyl)-6-(1H-indol-4-yl)quinolin-4-amine] the value was “MAPKAPK2”; for `CN(C)C1CCN(c2ccc(Nc3ccnc4ccc(-c5ccc6[nH]ccc6c5)cc34)cc2)C1` (stereo not drawn) [N-(4-(3-(dimethylamino)pyrrolidin-1-yl)phenyl)-6-(1H-indol-5-yl)quinolin-4-amine], “MAPKAPK2”; for `CN(C)C1CCN(c2ccc(Nc3ccnc4ccc(-c5ccc6cc[nH]c6c5)cc34)cc2)C1` (stereo not drawn) [N-(4-(3-(dimethylamino)pyrrolidin-1-yl)phenyl)-6-(1H-indol-6-yl)quinolin-4-amine], “MAPKAPK2”.
As for `Cc1ccc(-c2ccc3nccc(Nc4ccc(N5CCC(N(C)C)C5)cc4)c3c2)cc1C` (stereo not drawn) [N-(4-(3-(dimethylamino)pyrrolidin-1-yl)phenyl)-6-(3,4-dimethylphenyl)quinolin-4-amine], the entry is “MAPKAPK2”; as for `COc1ccc(-c2ccc3nccc(Nc4ccc(N5CCC(N(C)C)C5)cc4)c3c2)cc1F` (stereo not drawn) [N-(4-(3-(dimethylamino)pyrrolidin-1-yl)phenyl)-6-(3-fluoro-4-methoxyphenyl)quinolin-4-amine], “MAPKAPK2”.
For `Cc1ccc(-c2ccc3nccc(Nc4ccc(N5CCC(N(C)C)C5)cc4)c3c2)cc1F` (stereo not drawn) [N-(4-(3-(dimethylamino)pyrrolidin-1-yl)phenyl)-6-(3-fluoro-4-methylphenyl)quinolin-4-amine], the Activity result is given as “MAPKAPK2”.
For `COc1cccc(-c2ccc3nccc(Nc4ccc(N5CCC(N(C)C)C5)cc4)c3c2)c1` (stereo not drawn) [N-(4-(3-(dimethylamino)pyrrolidin-1-yl)phenyl)-6-(3-methoxyphenyl)quinolin-4-amine] the value was “MAPKAPK2”; for `Cc1cc(-c2ccc3nccc(Nc4ccc(N5CCC(N(C)C)C5)cc4)c3c2)ccc1F` (stereo not drawn) [N-(4-(3-(dimethylamino)pyrrolidin-1-yl)phenyl)-6-(4-fluoro-3-methylphenyl)quinolin-4-amine], “MAPKAPK2”; for `CC(C)c1ccc(-c2ccc3nccc(Nc4ccc(N5CCC(N(C)C)C5)cc4)c3c2)cc1` (stereo not drawn) [N-(4-(3-(dimethylamino)pyrrolidin-1-yl)phenyl)-6-(4-isopropylphenyl)quinolin-4-amine], “MAPKAPK2”.
As for `COc1ccc(-c2ccc3nccc(Nc4ccc(N5CCC(N(C)C)C5)cc4)c3c2)cc1` (stereo not drawn) [N-(4-(3-(dimethylamino)pyrrolidin-1-yl)phenyl)-6-(4-methoxyphenyl)quinolin-4-amine], the entry is “MAPKAPK2”; as for `C=Cc1ccc(-c2ccc3nccc(Nc4ccc(N5CCC(N(C)C)C5)cc4)c3c2)cc1` (stereo not drawn) [N-(4-(3-(dimethylamino)pyrrolidin-1-yl)phenyl)-6-(4-vinylphenyl)quinolin-4-amine], “MAPKAPK2”; as for `Cc1ccc(-c2ccc3nccc(Nc4ccc(N5CCC(N(C)C)C5)cc4)c3c2)nc1` (stereo not drawn) [N-(4-(3-(dimethylamino)pyrrolidin-1-yl)phenyl)-6-(5-methylpyridin-2-yl)quinolin-4-amine], “MAPKAPK2”.
Turning to `CN(C)C1CCN(c2ccc(Nc3ccnc4ccc(-c5ccc6ccccc6c5)cc34)cc2)C1` (stereo not drawn) [N-(4-(3-(dimethylamino)pyrrolidin-1-yl)phenyl)-6-(naphthalen-2-yl)quinolin-4-amine], the Activity result was “MAPKAPK2”.
For `CN(C)C1CCN(c2ccc(Nc3ccnc4ccc(-c5nccs5)cc34)cc2)C1` (stereo not drawn) [N-(4-(3-(dimethylamino)pyrrolidin-1-yl)phenyl)-6-(thiazol-2-yl)quinolin-4-amine] the value was “MAPKAPK2”; for `Cc1cccc(-c2ccc3nccc(Nc4ccc(N5CCC(N(C)C)C5)cc4)c3c2)c1` (stereo not drawn) [N-(4-(3-(dimethylamino)pyrrolidin-1-yl)phenyl)-6-m-tolylquinolin-4-amine], “MAPKAPK2”; for `Cc1ccc(-c2ccc3nccc(Nc4ccc(N5CCC(N(C)C)C5)cc4)c3c2)cc1` (stereo not drawn) [N-(4-(3-(dimethylamino)pyrrolidin-1-yl)phenyl)-6-p-tolylquinolin-4-amine], “MAPKAPK2”.
As for `CN(C)CCN1CCN(c2ccc(Nc3ccnc4ccc(-c5ccccc5)cc34)cc2)CC1` [N-(4-(4-(2-(dimethylamino)ethyl)piperazin-1-yl)phenyl)-6-phenylquinolin-4-amine], the entry is “MAPKAPK2”.
With `COCCN1CCN(c2ccc(Nc3ccnc4ccc(-c5ccccc5)cc34)cc2)CC1` [N-(4-(4-(2-methoxyethyl)piperazin-1-yl)phenyl)-6-phenylquinolin-4-amine], the Activity entry was “MAPKAPK2”.
For `CCC(CC)N1CCN(c2ccc(Nc3ccnc4ccc(-c5ccccc5)cc34)cc2)CC1` [N-(4-(4-(pentan-3-yl)piperazin-1-yl)phenyl)-6-phenylquinolin-4-amine] the value was “MAPKAPK2”; for `CCCCN1CCN(c2ccc(Nc3ccnc4ccc(-c5ccc(OC)cc5)cc34)cc2)CC1` [N-(4-(4-butylpiperazin-1-yl)phenyl)-6-(4-methoxyphenyl)quinolin-4-amine], “MAPKAPK2”.
For `CCCCN1CCN(c2ccc(Nc3ccnc4ccc(-c5ccccc5)cc34)cc2)CC1` [N-(4-(4-butylpiperazin-1-yl)phenyl)-6-phenylquinolin-4-amine] the value was “MAPKAPK2”.
As for `COc1ccc(-c2ccc3nccc(Nc4ccc(N5CCN(C6CCCCC6)CC5)cc4)c3c2)cc1` [N-(4-(4-cyclohexylpiperazin-1-yl)phenyl)-6-(4-methoxyphenyl)quinolin-4-amine], the entry is “MAPKAPK2”; as for `c1ccc(-c2ccc3nccc(Nc4ccc(N5CCN(C6CCCCC6)CC5)cc4)c3c2)cc1` [N-(4-(4-cyclohexylpiperazin-1-yl)phenyl)-6-phenylquinolin-4-amine], “MAPKAPK2”.
As for `COc1ccc(-c2ccc3nccc(Nc4ccc(N5CCN(C6CCCC6)CC5)cc4)c3c2)cc1` [N-(4-(4-cyclopentylpiperazin-1-yl)phenyl)-6-(4-methoxyphenyl)quinolin-4-amine], the Activity result is listed as “MAPKAPK2”.
For `c1ccc(-c2ccc3nccc(Nc4ccc(N5CCN(C6CCCC6)CC5)cc4)c3c2)cc1` [N-(4-(4-cyclopentylpiperazin-1-yl)phenyl)-6-phenylquinolin-4-amine] the value was “MAPKAPK2”.
For `CCN1CCN(c2ccc(Nc3ccnc4ccc(-c5ccc(OC)cc5)cc34)cc2)CC1` [N-(4-(4-ethylpiperazin-1-yl)phenyl)-6-(4-methoxyphenyl)quinolin-4-amine] the value was “MAPKAPK2”; for `CN1CCN(c2ccc(Nc3ccnc4ccc(-c5cncnc5)cc34)cc2)CC1` [N-(4-(4-methylpiperazin-1-yl)phenyl)-6-(pyrimidin-5-yl)quinolin-4-amine], “MAPKAPK2”; for `CCCN(c1ccc(N2CCN(C)CC2)cc1)c1ccnc2ccc(-c3ccccc3)cc12` [N-(4-(4-methylpiperazin-1-yl)phenyl)-6-phenyl-N-propylquinolin-4-amine], “MAPKAPK2”.
As for `CCC(C)N1CCN(c2ccc(Nc3ccnc4ccc(-c5ccc(OC)cc5)cc34)cc2)CC1` (stereo not drawn) [N-(4-(4-sec-butylpiperazin-1-yl)phenyl)-6-(4-methoxyphenyl)quinolin-4-amine], the entry is “MAPKAPK2”; as for `CCC(C)N1CCN(c2ccc(Nc3ccnc4ccc(-c5ccccc5)cc34)cc2)CC1` (stereo not drawn) [N-(4-(4-sec-butylpiperazin-1-yl)phenyl)-6-phenylquinolin-4-amine], “MAPKAPK2”.

(Values after US7452887B2, “Quinoline- and isoquinoline-based compounds exhibiting ATP-utilizing enzyme inhibitory activity, and compositions, and uses thereof” (Amphora Discovery Corporation, priority 2004, dated 2008).)
